What was measured:
Type in all cases: functional
Mus musculus [1] = species: Mus musculus
Mus musculus [2] = species: Mus musculus; remark: listed apart in the source
Mus musculus [3] = species: Mus musculus; remark: listed apart in the source

Q: Which results are given for `c1ccc(C2(N3CCCCC3)CCCCC2)cc1` [PHENCYCLIDINE]?
A: No. of mice (Mus musculus [1]): 4; No. of mice (Mus musculus [2]): 0; No. of mice (Mus musculus [3]): 0

— ChEMBL document CHEMBL1121693 (1981)
